Experimental data taken from patent US20110111396A1, “BIOMARKERS FOR MONITORING THE TREATMENT BY QUINAZOLINONE COMPOUNDS” (priority 2007, published 2011).

Key:
Format in all cases: cell-based
[1] = system: NHL cell lines (Namalwa, Rec-1, Jeko-1, Granta-519, JVM-2, DB); assay: NHL cell proliferation by 3H-thymidine incorporation assay
Description: As detailed below, the effect of the administration of a quinazolinone compound on several types of NHL cells was determined after 3 days using 3H-thymidine incorporation, microbead array technology and real time PCR.
To better understand how the effectiveness of quinazolinone compound administration varies among different cancer cell types, the quinazolinone compound 3-(2,5-dimethyl-4-oxo-4H-quinazolin-3-yl)-piperidine-2,6-dione was tested in vitro for its anti-proliferative effect in several NHL cell lines after 3 days of treatment.
(§1) NHL cell proliferation was assessed by 3H-thymidine incorporation assay. Briefly, cells were cultured in 96 well cell culture plates in complete RPMI-1640 medium in the presence and absence of drugs. Following incubation at 37° C. for 3 days, 1μCi 3H-thymidine was added to each well for the last 5 hours of incubation. The 3H incorporation of each well was then measured. The six tested cell lines were Namalwa, Rec-1, Jeko-1, Granta-519, JVM-2, and DB.

[2] = system: DB cell line; assay: NHL cell proliferation by 3H-thymidine incorporation assay, DB cell line; details: DB cells with t(14;18)
Description: as §1
Thus t(14;18) may be a negative prognostic factor in predicting clinical response to 3-(2,5-dimethyl-4-oxo-4H-quinazolin-3-yl)-piperidine-2,6-dione. Thus, SPARC gene expression can be used as a biomarker of NHL or MCL tumor response to quinazolinone compounds such as 3-(2,5-dimethyl-4-oxo-4H-quinazolin-3-yl)-piperidine-2,6-dione.

[3] = system: SPARC mRNA; assay: SPARC mRNA level in NHL cells by real-time RT-PCR; details: sensitive NHL cells; 24 hours of incubation; 10 μM; FIG. 2
Description: The effect of the administration of 3-(2,5-dimethyl-4-oxo-4H-quinazolin-3-yl)-piperidine-2,6-dione in various NHL cells was measured after 24 hours of incubation, using real-time RT-PCR (FIG. 2).
The following exemplary procedures can be used. Upon purification of total RNA, real-time PCR is performed with 100 ng of total RNA, using an Applied Biosystems 7500 instrument (Applied Biosystems, Foster City, Calif.) using TaqMan Sequence Detection chemistry which uses a fluorogenic probe (FAM) to enable the detection of a specific PCR product as it accumulates during PCR. Samples are prepared in triplicate in 50 μl reaction volumes. […]
TaqMan® Gene Expression Assays are pre-formulated gene expression assays for rapid, reliable detection and quantification of human, mouse and rat mRNA transcripts. […] Data is analyzed using 7500 Real-Time PCR System Sequence Detection software v1.3 using the comparative CT relative quantification calculation method. The output is expressed as a fold-change of expression levels. The threshold level is selected to be automatically determined by the software and is set to be above the baseline but sufficiently low to be within the exponential growth region of an amplification curve. The cycle number at which the fluorescence signal associated with a particular amplicon accumulation crosses the threshold is referred to as the CT.

SMILES: Nc1cccc2c1CN(C1CCC(=O)NC1=O)C2=O (centres unmarked) [1-oxo-2-(2,6-dioxopiperidin-3-yl)-4-aminoisoindoline, reference compound]
- order of sensitivity of the various NHL cell lines [1]: Namalwa (Burkitt's lymphoma)>Jeko-1>Rec-1>JVM-2>Granta-519 (all Mantle Cell Lymphomas, MCL)>DB

SMILES: Cc1cccc2nc(C)n(C3CCC(=O)NC3=O)c(=O)c12 (centres unmarked) [3-(2,5-dimethyl-4-oxo-4H-quinazolin-3-yl)-piperidine-2,6-dione]
- anti-proliferative activity against NHL cells ([1]; 3 days of treatment, 0.01, 0.1, 1, 10 and 100 μM, FIG. 1): demonstrated anti-proliferative activity
- dose dependence of the anti-proliferative effect ([1]; ranges tested 0, 0.01, 0.1, 1, 10 and 100 μM, especially in MCL cell lines): dose dependent
- response of DB cell line (rate of cell proliferation) [2]: increased rate of cell proliferation
- expression of SPARC mRNA [3]: increased the expression of SPARC mRNA
